According to publication PMC11289669, “BAR502/fibrate conjugates: synthesis, biological evaluation and metabolic profile” (Frontiers in Chemistry, 2024):

Key:
[1] = Chemical stability in HCl buffer, PBS buffer and culture medium by LC-MS; format: physicochemical; settings: 10 μM
Protocol: Chemical stability in HCl Buffer, PBS buffer and culture medium (EMEM) was evaluated by LC-MS dissolving compound 1 at 10 μM (final concertation) in cited buffers and injecting aliquots removed from incubations at different time points. Microsomal stability was evaluated employing 50 mM potassium phosphate buffer (pH 7.4) containing 0.15 mg of Human liver microsomes (Sigma-Aldrich, St. Louis, MO, United States) 5 mM MgCl2, 1 mM NADPH, 5 mM glucose 6-phosphate, 0.4 U·mL^−1 glucose 6-phosphate dehydrogenase. Compounds were tested at 1 µM final concentration. Aliquots, removed at different time points, were diluted with ice-cold acetonitrile and analyzed by LC-MS.

[2] = Stability in cryopreserved pooled human hepatocytes; format: in vitro ADME; settings: cryopreserved pooled human hepatocytes (HEP10), read-out: t1/2 in cryopreserved hepatocytes
Protocol: Cryopreserved HEP10 Pooled Human Hepatocytes were thawed in 37°C water bath for 2 min and then transferred into CHRM® Medium. After centrifugation at room temperature cells were resuspended in pre-warmed Incubation Medium and diluted to correct seeding density (5 × 10^5 cells/mL).

[3] = In cell permeation and metabolism in HepG2 cells (LC-MSMS); format: in vitro ADME, human; settings: 0–480 min
Protocol: HepG2 cells were treated with compound 1, BAR502 or clofibrate. At different time points (0–480 min) culture mediums and cells pellets were collected, extracted by adding ice-cold acetonitrile and analyzed by LC-MSMS.

3T3-L1 cells = experiment: 3T3-L1 preadipocyte differentiation, adipogenic marker gene expression (qRT-PCR); format: cell-based, murine; settings: differentiation medium (DIM), 7 days, 10 µM
Protocol: The 3T3-L1 cells were cultured in Dulbecco’s modified Eagle’s medium (DMEM; Euroclone), supplemented with 10% fetal bovine serum, 1% l-glutamine, 100 U/mL penicillin, and 100 μg/mL streptomycin, at 37 °C. Preadipocytes of 3T3-L1 cells were plated at 1.7 × 10^6 cells in T75 flasks, and grown to confluence. Two days after reaching confluence (day 0), the cells were stimulated with differentiation medium (DIM), either alone (DMEM, 10% FBS, 500 μM 3-isobutyl-1-methylxanthine, 1 μM dexamethasone, […]), or in combination with BAR502 and clofibrate at the concentration of 5 µM or with compound 1 (10 µM). On day 3, the DIM was replaced by insulin medium (DMEM, 10% fetal bovine serum, […]) alone or with the compounds. On day 7 cells were recovered.
Total mRNA extraction from U937 and 3T3.L1 was performed using Tri-Reagent (Zymo Research) and Direct-zol™ RNA MiniPrep w/Zymo-Spin™ IIC Columns (Zymo Research, Irvine, CA). […] The relative mRNA expression was calculated accordingly to the ΔCt method. […]

CC[C@@H]1C2C[C@H](O)CC[C@]2(C)C2CC[C@@]3(C)C(CC[C@@H]3[C@H](C)CCOC(=O)C(C)(C)Oc3ccc(Cl)cc3)C2[C@@H]1O (stereo partly shown) [Compound 1]
Chemical stability in HCl buffer ([1]; HCl buffer, 2h): stable | Chemical stability in PBS buffer ([1]; PBS buffer pH 7.4, 8 h): stable | Chemical stability in culture medium ([1]; culture medium (EMEM), 8 h): stable | half-life [2]: 2.02 h | Cell permeation (amount in cell pellets) compared to BAR502 [3]: higher cell permeation | Hydrolysis to clofibric acid in cells compared with clofibrate [3]: hydrolyzed more slowly | Expression of markers of adipocyte differentiation (Adiponectin, Pparγ, Cebp) (3T3-L1 cells): reduction in the expression of all markers of adipocyte differentiation
